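GI50 marks 50% less growth. At the TGI there is no net growth.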
Legend:
Experiment in all cases: NCI tumour cell line growth inhibition, 384-well format
786-0 renal = tested on: 786-0 renal
A498 renal = tested on: A498 renal
A549 NSCLC = tested on: A549 NSCLC
ACHN renal = tested on: ACHN renal
BT-549 breast = tested on: BT-549 breast
CAKI-1 renal = tested on: CAKI-1 renal
COLO 205 colon = tested on: COLO 205 colon
DU-145 prostate = tested on: DU-145 prostate
EKVX NSCLC = tested on: EKVX NSCLC
HCT-116 colon = tested on: HCT-116 colon
HCT-15 colon = tested on: HCT-15 colon
HL-60(TB) leukemia = tested on: HL-60(TB) leukemia
HOP-62 NSCLC = tested on: HOP-62 NSCLC
HOP-92 NSCLC = tested on: HOP-92 NSCLC
HS 578T breast = tested on: HS 578T breast
IGROV1 ovarian = tested on: IGROV1 ovarian
KM12 colon = tested on: KM12 colon
LOX IMVI melanoma = tested on: LOX IMVI melanoma
M14 melanoma = tested on: M14 melanoma
MALME-3M melanoma = tested on: MALME-3M melanoma
MCF7 breast = tested on: MCF7 breast
MDA-MB-231 breast = tested on: MDA-MB-231 breast
MDA-MB-435 melanoma = tested on: MDA-MB-435 melanoma
MDA-MB-468 breast = tested on: MDA-MB-468 breast
MOLT-4 leukemia = tested on: MOLT-4 leukemia
NCI-H226 lung = tested on: NCI-H226 lung
NCI-H23 lung = tested on: NCI-H23 lung
NCI-H322M lung = tested on: NCI-H322M lung
NCI-H460 NSCLC = tested on: NCI-H460 NSCLC
NCI-H522 lung = tested on: NCI-H522 lung
NCI/ADR-RES ovarian = tested on: NCI/ADR-RES ovarian
OVCAR-3 ovarian = tested on: OVCAR-3 ovarian
OVCAR-4 ovarian = tested on: OVCAR-4 ovarian
OVCAR-5 ovarian = tested on: OVCAR-5 ovarian
OVCAR-8 ovarian = tested on: OVCAR-8 ovarian
PC-3 prostate = tested on: PC-3 prostate
RPMI-8226 leukemia = tested on: RPMI-8226 leukemia
RXF 393 renal = tested on: RXF 393 renal
SF-268 CNS = tested on: SF-268 CNS
SF-295 CNS = tested on: SF-295 CNS
SF-539 CNS = tested on: SF-539 CNS
SK-MEL-28 melanoma = tested on: SK-MEL-28 melanoma
SK-MEL-5 melanoma = tested on: SK-MEL-5 melanoma
SK-OV-3 ovarian = tested on: SK-OV-3 ovarian
SN12C renal = tested on: SN12C renal
SNB-19 CNS = tested on: SNB-19 CNS
SNB-75 CNS = tested on: SNB-75 CNS
SR leukemia = tested on: SR leukemia
SW-620 colon = tested on: SW-620 colon
T-47D breast = tested on: T-47D breast
TK-10 renal = tested on: TK-10 renal
U251 glioblastoma = tested on: U251 glioblastoma
UACC-257 melanoma = tested on: UACC-257 melanoma
UACC-62 melanoma = tested on: UACC-62 melanoma
UO-31 renal = tested on: UO-31 renal

SMILES: N#CC[C@H](C1CCCC1)n1cc(-c2ncnc3[nH]ccc23)cn1
- GI50 (786-0 renal): 17.4 µM
- TGI (786-0 renal): 43.9 µM
- GI50 (A498 renal): 21.7 µM
- TGI (A498 renal): 41.6 µM
- GI50 (A549 NSCLC): 18.3 µM
- TGI (A549 NSCLC): 52.6 µM
- GI50 (ACHN renal): 21.1 µM
- TGI (ACHN renal): 50.9 µM
- GI50 (BT-549 breast): 19.8 µM
- TGI (BT-549 breast): 34.6 µM
- GI50 (CAKI-1 renal): 21.3 µM
- TGI (CAKI-1 renal): 50.5 µM
- GI50 (COLO 205 colon): 24.7 µM
- TGI (COLO 205 colon): 53.1 µM
- GI50 (DU-145 prostate): 16 µM
- TGI (DU-145 prostate): 42.1 µM
- GI50 (EKVX NSCLC): 20.9 µM
- TGI (EKVX NSCLC): 66 µM
- GI50 (HCT-116 colon): 23.5 µM
- TGI (HCT-116 colon): 63.4 µM
- GI50 (HCT-15 colon): 26.2 µM
- TGI (HCT-15 colon): 82.1 µM
- GI50 (HL-60(TB) leukemia): 23.9 µM
- TGI (HL-60(TB) leukemia): 38.8 µM
- GI50 (HOP-62 NSCLC): 18.7 µM
- TGI (HOP-62 NSCLC): 37.1 µM
- GI50 (HOP-92 NSCLC): 22.2 µM
- TGI (HOP-92 NSCLC): 56.3 µM
- GI50 (HS 578T breast): 12.4 µM
- TGI (HS 578T breast): 26 µM
- GI50 (IGROV1 ovarian): 22.7 µM
- TGI (IGROV1 ovarian): 84.4 µM
- GI50 (KM12 colon): 4.07 µM
- TGI (KM12 colon): > 100 µM
- GI50 (LOX IMVI melanoma): 19.1 µM
- TGI (LOX IMVI melanoma): 35.8 µM
- GI50 (M14 melanoma): 27.2 µM
- TGI (M14 melanoma): 50.9 µM
- GI50 (MALME-3M melanoma): 19 µM
- TGI (MALME-3M melanoma): 34.7 µM
- GI50 (MCF7 breast): 25.9 µM
- TGI (MCF7 breast): 77.7 µM
- GI50 (MDA-MB-231 breast): 16.4 µM
- TGI (MDA-MB-231 breast): 40.3 µM
- GI50 (MDA-MB-435 melanoma): 26.6 µM
- TGI (MDA-MB-435 melanoma): 66.5 µM
- GI50 (MDA-MB-468 breast): 23.2 µM
- TGI (MDA-MB-468 breast): 53.5 µM
- GI50 (MOLT-4 leukemia): 18.3 µM
- TGI (MOLT-4 leukemia): 46.1 µM
- GI50 (NCI-H226 lung): 5.75 µM
- TGI (NCI-H226 lung): 25 µM
- GI50 (NCI-H23 lung): 17.1 µM
- TGI (NCI-H23 lung): 32.8 µM
- GI50 (NCI-H322M lung): 26.3 µM
- TGI (NCI-H322M lung): 58.7 µM
- GI50 (NCI-H460 NSCLC): 16 µM
- TGI (NCI-H460 NSCLC): 46.7 µM
- GI50 (NCI-H522 lung): 13.6 µM
- TGI (NCI-H522 lung): 29.5 µM
- GI50 (NCI/ADR-RES ovarian): 23.4 µM
- TGI (NCI/ADR-RES ovarian): 50.3 µM
- GI50 (OVCAR-3 ovarian): 25.8 µM
- TGI (OVCAR-3 ovarian): 51.8 µM
- GI50 (OVCAR-4 ovarian): 29 µM
- TGI (OVCAR-4 ovarian): 51.2 µM
- GI50 (OVCAR-5 ovarian): 23.5 µM
- TGI (OVCAR-5 ovarian): 48.7 µM
- GI50 (OVCAR-8 ovarian): 27.6 µM
- TGI (OVCAR-8 ovarian): 75.8 µM
- GI50 (PC-3 prostate): 25.7 µM
- TGI (PC-3 prostate): 58.1 µM
- GI50 (RPMI-8226 leukemia): 19.4 µM
- TGI (RPMI-8226 leukemia): 34.6 µM
- GI50 (RXF 393 renal): 12.9 µM
- TGI (RXF 393 renal): 30.4 µM
- GI50 (SF-268 CNS): 16.2 µM
- TGI (SF-268 CNS): 36.6 µM
- GI50 (SF-295 CNS): 18.3 µM
- TGI (SF-295 CNS): 37.9 µM
- GI50 (SF-539 CNS): 19.7 µM
- TGI (SF-539 CNS): 42 µM
- GI50 (SK-MEL-28 melanoma): 23 µM
- TGI (SK-MEL-28 melanoma): 55.7 µM
- GI50 (SK-MEL-5 melanoma): 18.2 µM
- TGI (SK-MEL-5 melanoma): 33.1 µM
- GI50 (SK-OV-3 ovarian): 21 µM
- TGI (SK-OV-3 ovarian): 45.9 µM
- GI50 (SN12C renal): 18.7 µM
- TGI (SN12C renal): 49.7 µM
- GI50 (SNB-19 CNS): 30.6 µM
- TGI (SNB-19 CNS): 82.7 µM
- GI50 (SNB-75 CNS): 18.4 µM
- TGI (SNB-75 CNS): 41.3 µM
- GI50 (SR leukemia): 8.31 µM
- TGI (SR leukemia): 20.6 µM
- GI50 (SW-620 colon): 29.7 µM
- TGI (SW-620 colon): > 100 µM
- GI50 (T-47D breast): 19.5 µM
- TGI (T-47D breast): 63.9 µM
- GI50 (TK-10 renal): 29 µM
- TGI (TK-10 renal): 89.6 µM
- GI50 (U251 glioblastoma): 28.4 µM
- TGI (U251 glioblastoma): 71.8 µM
- GI50 (UACC-257 melanoma): 25.9 µM
- TGI (UACC-257 melanoma): 68.5 µM
- GI50 (UACC-62 melanoma): 21.5 µM
- TGI (UACC-62 melanoma): 41.7 µM
- GI50 (UO-31 renal): 18.1 µM
- TGI (UO-31 renal): 47.9 µM

Reference: PubChem BioAssay (NCI)
